Data taken from ChEMBL document CHEMBL1151797, “Discovery of inhibitors of the channel-activating protease prostasin (CAP1/PRSS8) utilizing structure-based design” (Bioorg Med Chem Lett, 2008).

Molecular target: Prostasin (Homo sapiens, UniProt Q16651)
Assay: Binding affinity to human prostasin

Sequence of Prostasin (Q16651 45-322 limits assumed, other chains not shown): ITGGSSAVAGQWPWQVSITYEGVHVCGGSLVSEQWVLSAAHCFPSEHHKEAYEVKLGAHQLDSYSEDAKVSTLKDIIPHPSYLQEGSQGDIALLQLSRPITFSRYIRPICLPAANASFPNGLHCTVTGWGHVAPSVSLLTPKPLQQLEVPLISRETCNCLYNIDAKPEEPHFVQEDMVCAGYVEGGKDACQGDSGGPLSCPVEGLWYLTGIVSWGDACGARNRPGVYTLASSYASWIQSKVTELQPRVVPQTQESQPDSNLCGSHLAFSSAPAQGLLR

Ki [nM]	SMILES
41	NCCCC[C@H](NC(=O)[C@@H]1C[C@@H](OCc2cccc(C(F)(F)F)c2)CN1C(=O)[C@@H](CCc1ccccc1)NC(=O)OCc1ccccc1)C(=O)c1nc2ccccc2o1
65	NCCCC[C@H](NC(=O)[C@@H]1C[C@@H](OCC2CCCC2)CN1C(=O)[C@@H](CCc1ccccc1)NC(=O)OCc1ccccc1)C(=O)c1nc2ccccc2o1
130	NCCCC[C@H](NC(=O)[C@@H]1C[C@@H](OC(=O)Nc2ccccc2)CN1C(=O)[C@@H](CCc1ccccc1)NC(=O)OCc1ccccc1)C(=O)c1nc2ccccc2o1
267	NCCCC[C@H](NC(=O)[C@@H]1[C@@H](c2ccccc2)CCN1C(=O)[C@@H](CCc1ccccc1)NC(=O)OCc1ccccc1)C(=O)c1nc2ccccc2o1
29	NCCCC[C@H](NC(=O)[C@@H]1C[C@@H](OC(=O)N2CCCCC2)CN1C(=O)[C@@H](CCc1ccccc1)NC(=O)OCc1ccccc1)C(=O)c1nc2ccccc2o1
40	NCCCC[C@H](NC(=O)[C@@H]1C[C@@H](OCc2ccccc2)CN1C(=O)[C@@H](CCc1ccccc1)NC(=O)OCc1ccccc1)C(=O)c1nc2ccccc2o1
19	NCCCC[C@H](NC(=O)[C@@H]1C[C@@H](OCC2CCCCC2)CN1C(=O)[C@@H](CCc1ccccc1)NC(=O)OCc1ccccc1)C(=O)c1nc2ccccc2o1
60	NCCCC[C@H](NC(=O)[C@@H]1C[C@@H](OC(=O)NCc2ccccc2)CN1C(=O)[C@@H](CCc1ccccc1)NC(=O)OCc1ccccc1)C(=O)c1nc2ccccc2o1
1550	CN(C)C(=O)O[C@@H]1C[C@@H](C(=O)N[C@@H](CCCCN)C(=O)c2nc3ccccc3o2)N(C(=O)[C@@H](CCc2ccccc2)NC(=O)OCc2ccccc2)C1
1400	NCCCC[C@H](NC(=O)[C@@H]1CCCN1C(=O)[C@@H](CCc1ccccc1)NC(=O)OCc1ccccc1)C(=O)c1nc2ccccc2o1
176	CS(=O)(=O)c1ccc(CNC(=O)O[C@@H]2C[C@@H](C(=O)N[C@@H](CCCCN)C(=O)c3nc4ccccc4o3)N(C(=O)[C@@H](CCc3ccccc3)NC(=O)OCc3ccccc3)C2)cc1
2100	NCCCC[C@H](NC(=O)[C@H](CCc1ccccc1)NC(=O)[C@H](Cc1cnc[nH]1)NC(=O)OCc1ccccc1)C(=O)c1nc2ccccc2o1
101	NCCCC[C@H](NC(=O)[C@@H]1C[C@@H](OC(=O)N2CCCC2)CN1C(=O)[C@@H](CCc1ccccc1)NC(=O)OCc1ccccc1)C(=O)c1nc2ccccc2o1
28	NCCCC[C@H](NC(=O)[C@@H]1C[C@@H](OCc2ccc(C(F)(F)F)cc2)CN1C(=O)[C@@H](CCc1ccccc1)NC(=O)OCc1ccccc1)C(=O)c1nc2ccccc2o1
12	NCCCC[C@H](NC(=O)[C@@H]1C[C@@H](OCc2ccc(Cl)cc2)CN1C(=O)[C@@H](CCc1ccccc1)NC(=O)OCc1ccccc1)C(=O)c1nc2ccccc2o1
27	NCCCC[C@H](NC(=O)[C@@H]1C[C@@H](OCc2ccc(F)cc2)CN1C(=O)[C@@H](CCc1ccccc1)NC(=O)OCc1ccccc1)C(=O)c1nc2ccccc2o1
45	Cc1ccc(CO[C@@H]2C[C@@H](C(=O)N[C@@H](CCCCN)C(=O)c3nc4ccccc4o3)N(C(=O)[C@@H](CCc3ccccc3)NC(=O)OCc3ccccc3)C2)cc1
5720	CC(C)C[C@H](NC(=O)[C@H](Cc1cnc[nH]1)NC(=O)OCc1ccccc1)C(=O)N[C@@H](CCCCN)C(=O)c1nc2ccccc2o1
1040	NCCCC[C@H](NC(=O)[C@@H]1C[C@@H](O)CN1C(=O)[C@@H](CCc1ccccc1)NC(=O)OCc1ccccc1)C(=O)c1nc2ccccc2o1
15200	CC(C)C[C@H](NC(=O)[C@H](CCCCN)NC(=O)OCc1ccccc1)C(=O)N[C@@H](CCCCN)C(=O)c1nc2ccccc2o1
> 100000	NCCCC[C@H](NC(=O)[C@H](CCc1ccccc1)NC(=O)OCc1ccccc1)C(=O)c1nc2ccccc2o1
49	C[C@H]1CCN(C(=O)[C@@H](CCc2ccccc2)NC(=O)OCc2ccccc2)[C@@H]1C(=O)N[C@@H](CCCCN)C(=O)c1nc2ccccc2o1
> 100000	CC(C)C[C@H](NC(=O)OCc1ccccc1)C(=O)N[C@@H](CCCCN)C(=O)c1nc2ccccc2o1
510	NCCCC[C@H](NC(=O)[C@@H]1C[C@@H](OC(=O)N2CCOCC2)CN1C(=O)[C@@H](CCc1ccccc1)NC(=O)OCc1ccccc1)C(=O)c1nc2ccccc2o1
